Assay results reported in patent publication US10065990B2, “Cyclic peptide compound, and preparation method, pharmaceutical composition and use thereof” (HANGZHOU GUANYU BIO-MEDICAL CO., LTD, priority 2013, dated 2018).

Columns and labels:
HDAC7 = target: T1, HDAC7 (Homo sapiens, UniProt Q8WUI4); assay: HDAC biochemical activity measurement (fluorescent substrate deacetylation);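 also: fluorogenic deacetylation assay using acetyl-lysine substrate at 20 µM, enzyme and compound incubated 30 min at 37 °C, then developer added, fluorescence read at 360/460 nm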; details: HDAC7; 37° C. 30 minutes
T1 sequence (Q8WUI4 1-952): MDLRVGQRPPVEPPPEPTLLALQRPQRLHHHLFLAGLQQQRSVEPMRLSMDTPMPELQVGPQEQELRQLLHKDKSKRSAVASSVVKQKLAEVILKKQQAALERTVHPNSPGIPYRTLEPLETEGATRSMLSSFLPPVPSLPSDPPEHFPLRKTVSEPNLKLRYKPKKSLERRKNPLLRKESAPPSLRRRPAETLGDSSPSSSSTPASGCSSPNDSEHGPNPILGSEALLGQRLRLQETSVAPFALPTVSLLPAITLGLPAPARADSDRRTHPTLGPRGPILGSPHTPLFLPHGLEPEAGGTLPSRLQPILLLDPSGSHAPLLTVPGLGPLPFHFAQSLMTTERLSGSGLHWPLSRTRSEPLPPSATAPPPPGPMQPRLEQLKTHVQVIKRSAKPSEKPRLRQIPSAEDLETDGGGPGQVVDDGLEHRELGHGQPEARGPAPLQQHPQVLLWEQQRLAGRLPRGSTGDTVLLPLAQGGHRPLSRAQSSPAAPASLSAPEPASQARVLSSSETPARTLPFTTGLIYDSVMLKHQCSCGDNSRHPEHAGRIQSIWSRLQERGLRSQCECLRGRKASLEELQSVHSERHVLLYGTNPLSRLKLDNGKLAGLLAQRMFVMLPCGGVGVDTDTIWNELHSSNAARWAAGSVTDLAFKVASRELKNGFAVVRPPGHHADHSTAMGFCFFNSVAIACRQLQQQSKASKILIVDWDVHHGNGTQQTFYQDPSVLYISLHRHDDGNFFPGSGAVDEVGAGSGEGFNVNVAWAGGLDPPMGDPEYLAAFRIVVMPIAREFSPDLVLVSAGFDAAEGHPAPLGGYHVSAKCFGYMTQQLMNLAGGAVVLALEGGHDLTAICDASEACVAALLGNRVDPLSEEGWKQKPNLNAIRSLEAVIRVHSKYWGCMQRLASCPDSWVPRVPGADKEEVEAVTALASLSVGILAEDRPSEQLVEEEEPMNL

[1] = tested on: A549 (human lung cancer cells); assay: MTT cancer cell growth inhibition; format: cell-based; details: Homo sapiens, A549, 72 h, MTT, 72 hours incubation; read-out: GI50 A54
Excerpt: (§1) MTT assay principle is yellow MTT can penetrate membrane into the cell, succinic dehydrogenase of the mitochondria in living cells can make exogenous MTT reduction of insoluble in water of blue-violet acicular formazan for crystallization and deposition in the cell, crystallization can be dissolved dimethyl sulfoxide (DMSO) solution, detected its absorbance at 490 nm/570 nm wavelength by enzyme-linked immunosorbent assay, which can reflect the number of cells.
(§2) Using DMEM+10% FBS culture medium or using 1640+10% FBS culture, respectively.
(§3) a) Cells were seeded in 96-well plates with the inoculation of 1500/well, 190 μl/hole, 37° C., 5% of CO2 incubator overnight;
(§4) b) The next day each well was added 10 μl of different drugs. The final concentration of drug was 10^−5˜10^−10M, three parallel holes; 37° C., 5% CO2 culture incubator for 72 hours incubation;
(§5) c) Per well was added 20 μl 5 mg/ml of MTT, 37° C., 5% CO2 culture incubator for 4 hours incubation;
(§6) d) The supernatant was discarded. Each well was added 100 μl of DMSO and oscillation;
(§7) e) 570 nm readings. Calculate cell viability. GI50 calculation based on the results.

[2] = tested on: BGC-823 (human gastric cancer cells); assay: MTT cancer cell growth inhibition; format: cell-based; details: Homo sapiens, BGC-823, 72 h, MTT, 72 hours incubation; read-out: GI50 BG
Excerpt: as §1, §2, §3, §4, §5, §6, §7

[3] = tested on: Bel-7402 (human hepatoma cells); assay: MTT cancer cell growth inhibition; format: cell-based; details: Homo sapiens, Bel-7402, 72 h, MTT, 72 hours incubation, Bel-7402 cells; read-out: GI50 Bel-7402
Excerpt: as §1, §2, §3, §4, §5, §6, §7

[4] = tested on: DU145 (human prostate cancer cells); assay: MTT cancer cell growth inhibition; format: cell-based; details: Homo sapiens, DU-145, 72 h, MTT, 72 hours incubation; read-out: GI50 Du1
Excerpt: as §1, §2, §3, §4, §5, §6, §7

[5] = tested on: H1975 (non-small cell lung adenocarcinoma); assay: MTT cancer cell growth inhibition; format: cell-based; details: Homo sapiens, NCI-H1975, 72 h, MTT, 72 hours incubation, H1975 cells; read-out: GI50 H1975
Excerpt: as §1, §2, §3, §4, §5, §6, §7

[6] = tested on: HCC827 (human non-small cell lung cancer cells); assay: MTT cancer cell growth inhibition; format: cell-based; details: Homo sapiens, HCC827, 72 h, MTT, 72 hours incubation, HCC827 cells; read-out: GI50 HCC827
Excerpt: as §1, §2, §3, §4, §5, §6, §7

[7] = tested on: HT1080 (human fibrosarcoma cells); assay: MTT cancer cell growth inhibition; format: cell-based; details: Homo sapiens, HT-1080, 72 h, MTT, 72 hours incubation; read-out: GI50 HT1
Excerpt: as §1, §2, §3, §4, §5, §6, §7

[8] = tested on: Hela (human cervical cancer cells); assay: MTT cancer cell growth inhibition; format: cell-based; details: Homo sapiens, HeLa, 72 h, MTT, 72 hours incubation; read-out: GI50 Hela
Excerpt: as §1, §2, §3, §4, §5, §6, §7

[9] = tested on: Huh-7 (human hepatoma cells); assay: MTT cancer cell growth inhibition; format: cell-based; details: Homo sapiens, Huh-7, 72 h, MTT, 72 hours incubation, Huh-7 cells; read-out: GI50 Huh-7
Excerpt: as §1, §2, §3, §4, §5, §6, §7

[10] = tested on: K562 (human leukemia cells); assay: MTT cancer cell growth inhibition; format: cell-based; details: Homo sapiens, K562, 72 h, MTT, 72 hours incubation, K562 cells; read-out: GI50 K562
Excerpt: as §1, §2, §3, §4, §5, §6, §7

[11] = tested on: KBM-5 (human chronic myelogenous leukemia); assay: MTT cancer cell growth inhibition; format: cell-based; details: Homo sapiens, KBM5, 72 h, MTT, 72 hours incubation, KBM-5 cells; read-out: GI50 KBM-5
Excerpt: as §1, §2, §3, §4, §5, §6, §7

[12] = tested on: KBM5-T315I (human chronic myelogenous leukemia); assay: MTT cancer cell growth inhibition; format: cell-based; details: Homo sapiens, 72 h, MTT, 72 hours incubation, KBM5-T315I cells; read-out: GI50 KBM5-T315I
Excerpt: as §1, §2, §3, §4, §5, §6, §7

[13] = tested on: MCF-7 (human breast cancer cells); assay: MTT cancer cell growth inhibition; format: cell-based; details: Homo sapiens, MCF7, 72 h, 72 hours incubation, read-out: GI50 MCF
Excerpt: as §1, §2, §3, §4, §5, §6, §7

[14] = tested on: MDA-MB-231 (breast cancer cells); assay: MTT cancer cell growth inhibition; format: cell-based; details: Homo sapiens, MDA-MB-231, 72 h, read-out: GI50 MDA-MB-231, MTT, 72 hours incubation, MDA-MB-231 cells
Excerpt: as §1, §2, §3, §4, §5, §6, §7

[15] = tested on: MOLT-4 (human acute lymphoblastic leukemia cells); assay: MTT cancer cell growth inhibition; format: cell-based; details: Homo sapiens, MOLT-4, 72 h, MTT, 72 hours incubation; read-out: GI50 Mol
Excerpt: as §1, §2, §3, §4, §5, §6, §7

[16] = tested on: N-87 (human gastric cancer cells); assay: MTT cancer cell growth inhibition; format: cell-based; details: Homo sapiens, 72 h, MTT, 72 hours incubation, N-87 cells; read-out: GI50 N-87
Excerpt: as §1, §2, §3, §4, §5, §6, §7

[17] = tested on: PANC-1 (Pac-1, human pancreatic cancer cells); assay: MTT cancer cell growth inhibition; format: cell-based; details: Homo sapiens, PANC-1, 72 h, MTT, 72 hours incubation; read-out: GI50 PAN
Excerpt: as §1, §2, §3, §4, §5, §6, §7

[18] = tested on: SGC-7901 (human gastric cancer cells); assay: MTT cancer cell growth inhibition; format: cell-based; details: Homo sapiens, SGC-7901, 72 h, MTT, 72 hours incubation, SGC-7901 cells; read-out: GI50 SGC-7901
Excerpt: as §1, §2, §3, §4, §5, §6, §7

[19] = tested on: U937 (human leukemia cells); assay: MTT cancer cell growth inhibition; format: cell-based; details: Homo sapiens, U-937, 72 h, MTT, 72 hours incubation; read-out: GI50 U93
Excerpt: as §1, §2, §3, §4, §5, §6, §7

[20] = tested on: lncap (prostate cancer cells); assay: MTT cancer cell growth inhibition; format: cell-based; details: Homo sapiens, LNCaP, 72 h, MTT, 72 hours incubation; read-out: GI50 lnca
Excerpt: as §1, §2, §3, §4, §5, §6, §7

| SMILES | IC50 HDAC7 (HDAC7) | GI50 [1] | GI50 [2] | GI50 [3] | GI50 [4] | GI50 [5] | GI50 [6] | GI50 [7] | GI50 [8] | GI50 [9] | GI50 [10] | GI50 [11] | GI50 [12] | GI50 [13] | GI50 [14] | GI50 [15] | GI50 [16] | GI50 [17] | GI50 [18] | GI50 [19] | other results |
| --- | --- | --- | --- | --- | --- | --- | --- | --- | --- | --- | --- | --- | --- | --- | --- | --- | --- | --- | --- | --- | --- |
| CC(C)=C1NC(=O)c2nc(ccc2F)CNC(=O)C[C@@H](/C=C/CCS)OC(=O)[C@H](C(C)C)NC1=O [Compound 136] | no activity | 40 nM | 70 nM | 22 nM | 10 nM | 35 nM | 41 nM | 40 nM | 80 nM | 36 nM | 46 nM | 9 nM | 35 nM | 50 nM | 58 nM | 20 nM | 31 nM | 80 nM | 51 nM | 30 nM | GI50 [20]: 30 nM |
| CC(C)=C1NC(=O)c2cc(F)cc(n2)CNC(=O)C[C@@H](/C=C/CCS)OC(=O)[C@H](C(C)C)NC1=O [Compound 137] | no activity | 20 nM | 30 nM | 16 nM | 30 nM | 53 nM | 49 nM | 80 nM | 70 nM | 43 nM | 35 nM | 48 nM | 26 nM | 30 nM | 45 nM | 40 nM | 29 nM | 80 nM | 81 nM | 30 nM | GI50 [20]: 20 nM |
| CC(C)=C1NC(=O)c2ccc(F)c(n2)CNC(=O)C[C@@H](/C=C/CCS)OC(=O)[C@H](C(C)C)NC1=O [Compound 138] | no activity | 40 nM | 20 nM | 76 nM | 20 nM | 43 nM | 22 nM | 20 nM | 60 nM | 36 nM | 21 nM | 42 nM | 45 nM | 20 nM | 52 nM | 50 nM | 16 nM | 30 nM | 72 nM | 20 nM | GI50 [20]: 50 nM |
